Test results taken from US10590143B2, “Herbicidally active (alkynyl-phenyl)-substituted cyclic dione compounds and derivatives thereof” (Syngenta Limited, priority 2013, dated 2020).
Where two headings read alike, the source gives them in different places.

How the values were obtained:
Format in all cases: in vivo
Eleusine indica (ELEIN) = assay: Biological Example 3 glasshouse assay for herbicidal activity, using various adjuvant systems; settings: post-emergence, 8 g/ha, 14 or 15 DAA; adjuvant 0.5% v/v + 1.0% AMS + 12.5% IPA: TEHP (A3-A7), Adigor (A8, P1, P2, P4), Hexamoll DINCH (A1)
Procedure: (§1) • Materials and Methods • Herbicide Application: Post-emergence foliar spray application, 200 L/ha, usually one or two replicates for the weeds (depending on application rate), and two replicates for soybean. • Climate: Standard warm conditions (tropical), in glasshouse. Specifically, the glasshouse bay conditions are 24° C./18° C. day/night; 16/8 hours light/dark; 65% humidity. • Plants: The herbicidal application takes place at the following growth stages for plants which include inter alia one or more of the following plants (usually the herbicidal application takes place on at least the following plants: DIGSA, ELEIN, SETFA, ZEAMX, GLXMA Nikko, and GLXMA TMG133, and often also either BRADC or BRAPP): • Brachiaria decumbens (BRADC)—growth stage (GS) 12 or 13 (or GS 12)—or, if BRADC is not used, then usually Brachiaria platyphylla (BRAPP)—growth stage 12 or 13 • Digitaria sanguinalis (DIGSA)—growth stage 12 or 13 • Eleusine indica (ELEIN)—growth stage 12 or 13 • Setaria faberi (SETFA)—growth stage 12 or 13 • Echinochloa crus-galli (ECHCG)—growth stage 12 or 13 • Sorghum halepense (annual) (SORHA)—growth stage 12 or 13 • Panicum dichotomiflorum (PANDI)—growth stage 12 or 13 • Zea mays (ZEAMX, maize/corn, e.g. can occur as volunteer corn) cultivar “Garland”—growth stage 12 or 13 • Glycine max (GLXMA, soybean) cultivar “Nikko”—growth stage: 1st trifoliate • Glycine max (GLXMA, soybean) cultivar “TMG133”—which is Roundup Ready™ glyphosate-tolerant soybean cultivar TMG133 (typically available from Monsanto in Brazil)—growth stage: 1st trifoliate. • Herbicidal Compositions Tested:
(§2) Each test compound is applied with one of the following adjuvant systems (all percentages are final concentrations in the aqueous spray mixture): • Adjuvant system 1: 0.5% v/v Adigor™*, 1.0% v/v AMS (ammonium sulphate) and 12.5% v/v IPA (isopropyl alcohol). • Adjuvant system 2: 0.5% v/v Hexamoll™ DINCH**, 1.0% v/v AMS (ammonium sulphate) and 12.5% v/v IPA (isopropyl alcohol). • Adjuvant system 3: 0.5% v/v tris-(2-ethylhexyl)phosphate (“TEHP”), 1.0% v/v AMS (ammonium sulphate) and 12.5% v/v IPA (isopropyl alcohol). ***Adigor™ (currently available in many countries from Syngenta) is an emulsifiable concentrate which consists of: • (i) ethoxylated alcohols, which typically includes ethoxylated higher alcohols (e.g. ethoxylates of alcohols wherein the alcohols are within the range of C12-C22); and • (ii) a mixture of heavy aromatic hydrocarbons, which typically includes (e.g. includes 50% or more by weight of the heavy aromatic hydrocarbons of) a mixture of naphthalenes each of which is substituted by one or more alkyls wherein the alkyl(s) in total have 1-4 carbon atoms per naphthalene molecule (e.g. Solvesso 200 ND™); and • (iii) about 47% w/w and/or about 45% w/v (with respect to the emulsifiable concentrate) of methylated rapeseed oil (rapeseed oil methyl ester) (e.g. Agnique ME 18 RD-F™), as an adjuvant. **Hexamoll™ DINCH™ is 1,2-cyclohexane dicarboxylic acid di-isononyl ester
(§3) Seeds of the weed (including volunteer) plants, typically including inter alia Digitaria sanguinalis (DIGSA), Eleusine indica (ELEIN), Setaria faberi (SETFA), Zea mays (ZEAMX, corn), and sometimes also [either Brachiaria decumbens (BRADC) or Brachiaria platyphylla (BRAPP)], are sown in seed trays (troughs) containing clay loam soil (pH 7.0, 2.2% organic matter, “Trough Mix A”); and soybean seed is sown in pots containing the same soil with 3 soybean seedlings per pot. The plants are sprayed with the test herbicide when they reach the growth stages mentioned above.
(§4) The test herbicidal solutions are prepared by mixing the appropriate aliquots of the test substance(s) and one of the adjuvant systems indicated above*** in deionised water to give the desired treatment concentration.
(§5) The herbicidal application is made as a foliar spray, using a tracksprayer. Following the herbicidal application, the plants are watered twice per day for the duration of the test. […]

[1] = test system: Echinochloa crus-galli (ECHCG); assay: Biological Example 1 glasshouse assay for herbicidal activity; settings: Echinochloa crus-galli, 312 h, 13 days after application, read-out: percentage phytotoxicity ECHCG
Procedure: (§6) Seeds of a variety of test plant species were sown in standard soil** in pots. After cultivation for one day (pre-emergence) or after 8 days cultivation (post-emergence) under controlled conditions in a glasshouse (at 24/16° C., day/night; 14 hours light; 65% humidity), the plants were sprayed with an aqueous spray solution derived from the formulation of the technical active ingredient (the test herbicide) in acetone/water (50:50) solution containing 0.5% Tween 20 (polyoxyethylene sorbitan monolaurate, CAS Reg. No. 9005-64-5). The test plants were then grown on under controlled conditions in a glasshouse (at 24/16° C., day/night; 14 hours light; 65% humidity) and watered twice daily. 13 Days after application of the test herbicide, for pre- and post-emergence, the test was evaluated visually for percentage phytotoxicity to each plant (where 100%=total damage to plant; 0%=no damage to plant). Generally, each test herbicide is only tested on 1 plant per plant species for each application rate tested and for each application timing. **The “standard soil” in Biological Example 1 is usually a “sand” or “sandy loam” type of soil.
(§7) Dicotyledonous weeds: ABUTH=Abutilon theophrasti; AMARE=Amaranthus retroflexus. Grassy monocotyledonous weeds: SETFA=Setaria faberi; ALOMY=Alopecurus myosuroides; ECHCG=Echinochloa crus-galli; ZEAMX=Zea mays (corn, maize, e.g. volunteer corn).

[2] = test system: Zea mays (ZEAMX, corn, maize, e.g. volunteer corn); assay: as above; settings: Zea mays, 312 h, 13 days after application, read-out: percentage phytotoxicity ZEAMX
Procedure: as §6, §7

Setaria faberi (SETFA) [3] = assay: as above; settings: 312 h, 13 days after application, read-out: percentage phytotoxicity SETFA
Procedure: as §6, §7

[4] = test system: Alopecurus myosuroides (ALOMY); assay: as above; settings: 312 h, 13 days after application, read-out: percentage phytotoxicity ALOMY
Procedure: as §6, §7

[5] = test system: Abutilon theophrasti (ABUTH); assay: as above; settings: 312 h, 13 days after application, read-out: percentage phytotoxicity ABUTH
Procedure: as §6, §7

[6] = test system: Amaranthus retroflexus (AMARE); assay: as above; settings: Amaranthus retroflexus, 312 h, 13 days after application, read-out: percentage phytotoxicity AMARE
Procedure: as §6, §7

Setaria faberi (SETFA) [7] = assay: Biological Example 3 glasshouse assay for herbicidal activity, using various adjuvant systems; settings: post-emergence, 8 g/ha, 14 or 15 DAA; adjuvant 0.5% v/v + 1.0% AMS + 12.5% IPA: TEHP (A3-A7), Adigor (A8, P1, P2, P4), Hexamoll DINCH (A1)
Procedure: as §1, §2, §3, §4, §5

[8] = test system: Digitaria sanguinalis (DIGSA); assay: as above; settings: post-emergence, 8 g/ha, 14 or 15 DAA; adjuvant 0.5% v/v + 1.0% AMS + 12.5% IPA: TEHP (A3-A7), Adigor (A8, P1, P2, P4), Hexamoll DINCH (A1)
Procedure: as §1, §2, §3, §4, §5

Zea mays (ZEAMX, corn) = assay: as above; settings: post-emergence, 8 g/ha, 14 or 15 DAA; adjuvant 0.5% v/v + 1.0% AMS + 12.5% IPA: TEHP (A3-A7), Adigor (A8, P1, P2, P4), Hexamoll DINCH (A1)
Procedure: as §1, §2, §3, §4, §5

[9] = post-emergence, post-emergence, 30 g/ha

**Q.** What does the source list for `CC#Cc1cc(Br)c(C2C(=O)C3CCC(C3)C2=O)c(OC)c1` (centres unmarked) [Compound A3]?
**A.** percentage control of (percentage phytotoxicity on) Eleusine indica (ELEIN) (Eleusine indica (ELEIN)): 55%; pest or weed control at 30 g/ha [1, 9]: 90%; pest or weed control at 250 g/ha ([1]; post-emergence, post-emergence): 100%; pest or weed control at 250 g/ha ([1]; pre-emergence, pre-emergence): 100%; pest or weed control at 30 g/ha [2, 9]: 90%; pest or weed control at 250 g/ha ([2]; post-emergence, post-emergence): 100%; pest or weed control at 250 g/ha ([2]; pre-emergence, pre-emergence): 100%; pest or weed control at 30 g/ha (Setaria faberi (SETFA) [3]; [9]): 80%; pest or weed control at 250 g/ha (Setaria faberi (SETFA) [3]; post-emergence, post-emergence): 100%; pest or weed control at 250 g/ha (Setaria faberi (SETFA) [3]; pre-emergence, pre-emergence): 100%; pest or weed control at 30 g/ha ([4]; post-emergence, 30 g/ha): 70%; pest or weed control at 250 g/ha ([4]; post-emergence): 100%; pest or weed control at 250 g/ha ([4]; pre-emergence): 100%; pest or weed control at 30 g/ha [5, 9]: 0%; pest or weed control at 250 g/ha ([5]; post-emergence, post-emergence): 10%; pest or weed control at 250 g/ha ([5]; pre-emergence, pre-emergence): 10%; pest or weed control at 30 g/ha [6, 9]: 0%; pest or weed control at 250 g/ha ([6]; post-emergence, post-emergence): 20%; pest or weed control at 250 g/ha ([6]; pre-emergence, pre-emergence): 20%

**Q.** For `CC#Cc1cc(F)c(C2C(=O)C3CCC(C3)C2=O)c(OCCOC)c1` (centres unmarked) [Compound A5], which “percentage control of (percentage phytotoxicity on) Setaria faberi (SETFA)” value (Setaria faberi (SETFA) [7]) is on record?
**A.** 25%

**Q.** What about the “percentage control of (percentage phytotoxicity on) Eleusine indica (ELEIN)” value (Eleusine indica (ELEIN)) of the same compound?
**A.** 0%

**Q.** What about the “percentage control of (percentage phytotoxicity on) Digitaria sanguinalis (DIGSA)” value [8] of the same compound?
**A.** 0%

**Q.** And the pest or weed control at 250 g/ha ([1]; post-emergence, post-emergence)?
**A.** 100%

**Q.** And the pest or weed control at 250 g/ha ([1]; pre-emergence, pre-emergence)?
**A.** 80%

**Q.** And the pest or weed control at 250 g/ha ([2]; post-emergence, post-emergence)?
**A.** 100%

**Q.** What about the pest or weed control at 250 g/ha ([2]; pre-emergence, pre-emergence) of the same compound?
**A.** 90%

**Q.** And the pest or weed control at 250 g/ha (Setaria faberi (SETFA) [3]; post-emergence, post-emergence)?
**A.** 80%

**Q.** And the pest or weed control at 250 g/ha (Setaria faberi (SETFA) [3]; pre-emergence, pre-emergence)?
**A.** 60%

**Q.** What about the pest or weed control at 250 g/ha ([4]; post-emergence) of the same compound?
**A.** 70%

**Q.** What about the pest or weed control at 250 g/ha ([4]; pre-emergence) of the same compound?
**A.** 40%

**Q.** And the pest or weed control at 250 g/ha ([5]; post-emergence, post-emergence)?
**A.** 30%

**Q.** What about the pest or weed control at 250 g/ha ([5]; pre-emergence, pre-emergence) of the same compound?
**A.** 20%

**Q.** And the pest or weed control at 250 g/ha ([6]; post-emergence, post-emergence)?
**A.** 30%

**Q.** And the pest or weed control at 250 g/ha ([6]; pre-emergence, pre-emergence)?
**A.** 50%

**Q.** With `CC#Cc1cc(F)c(C2C(=O)C3CCC(C3)C2=O)c(OCC(F)(F)F)c1` (centres unmarked) [Compound A6] as the compound, how does the “percentage control of (percentage phytotoxicity on) Zea mays (ZEAMX, corn)” value (Zea mays (ZEAMX, corn)) read?
**A.** 0%

**Q.** And the “percentage control of (percentage phytotoxicity on) Setaria faberi (SETFA)” value (Setaria faberi (SETFA) [7])?
**A.** 25%

**Q.** What about the “percentage control of (percentage phytotoxicity on) Eleusine indica (ELEIN)” value (Eleusine indica (ELEIN)) of the same compound?
**A.** 5%

**Q.** What about the “percentage control of (percentage phytotoxicity on) Digitaria sanguinalis (DIGSA)” value [8] of the same compound?
**A.** 5%

**Q.** What about the pest or weed control at 250 g/ha ([1]; post-emergence, post-emergence) of the same compound?
**A.** 100%

**Q.** What about the pest or weed control at 250 g/ha ([1]; pre-emergence, pre-emergence) of the same compound?
**A.** 80%

**Q.** What about the pest or weed control at 250 g/ha ([2]; post-emergence, post-emergence) of the same compound?
**A.** 100%

**Q.** And the pest or weed control at 250 g/ha ([2]; pre-emergence, pre-emergence)?
**A.** 80%

**Q.** What about the pest or weed control at 250 g/ha (Setaria faberi (SETFA) [3]; post-emergence, post-emergence) of the same compound?
**A.** 80%

**Q.** What about the pest or weed control at 250 g/ha (Setaria faberi (SETFA) [3]; pre-emergence, pre-emergence) of the same compound?
**A.** 70%

**Q.** And the pest or weed control at 250 g/ha ([4]; post-emergence)?
**A.** 80%

**Q.** What about the pest or weed control at 250 g/ha ([4]; pre-emergence) of the same compound?
**A.** 60%

**Q.** What about the pest or weed control at 250 g/ha ([5]; post-emergence, post-emergence) of the same compound?
**A.** 20%

**Q.** And the pest or weed control at 250 g/ha ([5]; pre-emergence, pre-emergence)?
**A.** 30%

**Q.** And the pest or weed control at 250 g/ha ([6]; post-emergence, post-emergence)?
**A.** 50%

**Q.** What about the pest or weed control at 250 g/ha ([6]; pre-emergence, pre-emergence) of the same compound?
**A.** 60%
